Assays:
[1] = Stability of NR in liquid (water, milk); assay type: physicochemical
[2] = Blood chemistry analysis of piglets given NR solution; assay type: in vivo, piglets (Yorkshire/Hampshire crossbred)
From the text: Sixteen (n=16) Yorkshire/Hampshire crossbred piglets were obtained from the University of California, Davis Swine Teaching and Research Center and received on lactation day (“LD”) 14. Prior to arrive, the piglets were processed by the suppler between 1-3 days of age by administration of iron and an antibiotic ([…] for swine) as is common practice at the University of California, Davis Swine Facility. It is not common practice at the University of California, Davis Swine Facility to give a second dose of iron and antibiotics unless it becomes necessary. The piglets were from two litters (litters 15 and 17), weaned at 17 days of age, and randomly placed into one of two groups balanced for litter, sex, and weight. The animals were not acclimated to the facility at arrival and were subsequently acclimated to the test diet administration system. The piglets were weaned into a temperature-controlled room (approximately 27-29° C.) that contained 10 adjacent pens. The piglets were group-housed in the nursery room at the Swine Facility, which is an enclosed room with access restricted to trained personnel. The two groups were separated by one pen containing piglets of similar age. Each morning enough nicotinamide riboside (NR, I) in water solution was prepared for that day's dose administration according to the dose preparation protocol. At least 5 mL of prepared dose was reserved and immediately frozen after preparation each day for analysis of nicotinamide riboside (NR, I) for the purpose of confirming stability of the dose material. The doses were stored at refrigeration temperature while not in use. Nicotinamide riboside (NR, I) was dosed once per day in the morning and at the same time each day. Piglets in the control group received the same volume of plain water and were dosed on the same schedule. Starting on Day 1, animals in the nicotinamide riboside (NR, I) group were dosed once daily (in the morning) with 277 mg nicotinamide riboside (NR, I) per pig resuspended in water for seven days. After one week, animals were dosed once daily with 342 mg nicotinamide riboside (NR, I) per pig delivered in 2.5 mL for seven days. For Days 1 and 2, the nicotinamide riboside (NR, I) solution was prepared by resuspending 2770 mg nicotinamide riboside (NR, I) in 50 mL water, and 5 mL of this solution was delivered to each pig by squirting it into the back of the mouth using a 10 mL syringe with a piece of tubing attached to the end. To reduce the volume to more efficiently deliver the nicotinamide riboside (NR, I) solution, the 2770 mg was resuspended in 25 mL water and 2.5 mL of the solution was squirted into the back of the mouth of each pig using a 3 mL syringe for Days 3-7. For Days 8-14, 3420 mg nicotinamide riboside (NR, I) was resuspended in 25 mL water and 2.5 mL of this solution was delivered to each pig. Each day prior to dosing, 2.5 mL of the nicotinamide riboside (NR, I) (5 mL on Days 1 and 2) were placed into a separate tube and frozen. Blood was collected from each pig via jugular venipuncture on Days 1, 8, and 14. In each instance, blood was collected prior to dosing with nicotinamide riboside (NR, I). On Day 1, the sow was removed from the piglets for approximately three hours prior to sample collection. On Days 8 and 14, feed was removed from the animals' pens 12 hours prior to sample collection. Blood was collected into purple-top vacutainers for CBC analysis and into red-top vacutainers for blood chemistry analysis. CBC analysis was performed at IDEXX Laboratories in West Sacramento, California using the Sysmex XT-iV Vet Hematology Autoanalyzer (Sysmex America Inc., Lincolnshire, Illinois). Red-top tubes were spun to collect serum and the serum frozen. Frozen aliquots (500 μL) were submitted to the University of California, Davis Veterinary medicine Teaching Hospital Clinical Diagnostic Laboratory for Blood Chemistry Analysis using the Cobas 6000 C501 Clinical Chemistry Analyzer (Roche Diagnostics, Indianapolis, IN). […]

[3] = Wk 1, 277 mg/pig once daily oral
[4] = Wk 2, 342 mg/pig once daily oral Days 8-14

stability in milk ([1]; cow's milk and human breast milk): stable in milk
stability in water ([1]; in water): unstable over time
Albumin ([2]; Baseline, before dosing): 3.74 g/dL
Alkaline Phosphatase ([2]; Baseline, before dosing): 720 U/L
Anion Gap ([2]; Baseline, before dosing): 26.7 mmol/L
BUN ([2]; Baseline, before dosing): 5.8 mg/dL
Bicarbonate ([2]; Baseline, before dosing): 19.4 mmol/L
Bilirubin Total ([2]; Baseline, before dosing): 0.40 mg/dL
Calcium ([2]; Baseline, before dosing): 10.6 mg/dL
Chloride ([2]; Baseline, before dosing): 100.3 mmol/L
Creatine Kinase ([2]; Baseline, before dosing): 1.30 ×10^3 U/L
Creatinine ([2]; Baseline, before dosing): 0.94 mg/dL
GGT ([2]; Baseline, before dosing): 43.8 U/L
Globulin ([2]; Baseline, before dosing): 0.86 g/dL
Glucose ([2]; Baseline, before dosing): 117.8 mg/dL
Phosphorus ([2]; Baseline, before dosing): 9.9 mg/dL
Potassium ([2]; Baseline, before dosing): 4.50 mmol/L
Sodium ([2]; Baseline, before dosing): 141.9 mmol/L
Total Protein ([2]; Baseline, before dosing): 4.59 g/dL
Albumin [2, 3]: 3.43 g/dL
Alkaline Phosphatase [2, 3]: 326 U/L
Anion Gap [2, 3]: 21.1 mmol/L
BUN [2, 3]: 10.9 mg/dL
Bicarbonate [2, 3]: 20.1 mmol/L
Bilirubin Total [2, 3]: 0.40 mg/dL
Calcium [2, 3]: 9.0 mg/dL
Chloride [2, 3]: 96.1 mmol/L
Creatine Kinase [2, 3]: 0.88 ×10^3 U/L
Creatinine [2, 3]: 1.07 mg/dL
GGT [2, 3]: 41.4 U/L
Globulin [2, 3]: 0.97 g/dL
Glucose [2, 3]: 99.7 mg/dL
Phosphorus [2, 3]: 6.5 mg/dL
Potassium [2, 3]: 4.27 mmol/L
Sodium [2, 3]: 133.1 mmol/L
Total Protein [2, 3]: 4.40 g/dL
Albumin [2, 4]: 3.29 g/dL
Alkaline Phosphatase [2, 4]: 285 U/L
Anion Gap [2, 4]: 20.4 mmol/L
BUN [2, 4]: 8.6 mg/dL
Bicarbonate [2, 4]: 23.7 mmol/L
Bilirubin Total [2, 4]: 0.27 mg/dL
Calcium [2, 4]: 9.8 mg/dL
Chloride [2, 4]: 97.1 mmol/L
Creatine Kinase [2, 4]: 0.55 ×10^3 U/L
Creatinine [2, 4]: 0.80 mg/dL
GGT [2, 4]: 42.6 U/L
Globulin [2, 4]: 1.20 g/dL
Glucose [2, 4]: 77.1 mg/dL
Phosphorus [2, 4]: 7.5 mg/dL
Potassium [2, 4]: 4.10 mmol/L
Sodium [2, 4]: 137.3 mmol/L
Total Protein [2, 4]: 4.49 g/dL
Compound: NC(=O)c1ccc[n+]([C@@H]2O[C@H](CO)[C@@H](O)[C@H]2O)c1 [NR, Nicotinamide riboside]
AST ([2]; Baseline, before dosing): 45.5 U/L
AST [2, 3]: 50.6 U/L
AST [2, 4]: 36.7 U/L

From patent US12433908B2, “Use of nicotinamide riboside, nicotinic acid riboside, and nicotinamide mononucleotide, reduced nicotinyl compounds, and nicotinoyl compound derivatives in infant formula for healthy development” (ChromaDex, Inc., priority 2016, dated 2025)
